Test results published in US11667678B2, “Peptides for the treatment of COVID-19” (priority 2019, dated 2023).
Peptide text beside a SMILES is read from it.

What was measured:
[1] = tested on: SARS-CoV-2 spike S1-intoxicated C57/BL6 mice; settings: mouse, in vivo
[2] = tested on: human A549 lung cells stimulated with recombinant SARS-CoV-2 spike S1; settings: 'See herein and Paidi et al.'; cited from earlier work
[3] = target: ACE2:SARS-CoV-2 spike S1 binding (UniProt P0DTC2+Q9BYF1)
[4] = tested on: human A549 lung cells stimulated with HIV-1 Tat; type: cell-based
[5] = tested on: human A549 lung cells stimulated with bacterial flagellin; type: cell-based
[6] = tested on: SARS-CoV-2 spike S1-intoxicated C57/BL6 mice; settings: mouse, in vivo; remark: listed apart in the source
[7] = tested on: human A549 lung cells stimulated with poly IC; type: cell-based
[8] = tested on: human A549 lung cells stimulated with recombinant SARS-CoV-2 spike S1; type: cell-based
control mice = settings: mouse, in vivo

With EDLFYQ (SPIDAR peptide) [wtSPIDAR] as the compound, how does the “arrhythmias (ECG heart functions)” value [1] read?
Its value is “reduced arrhythmias”.

What about the “fever (body temperature)” value [1] of the same compound?
Its value is “reduced fever”.

What about the “infiltration of neutrophils into the lungs” value [1] of the same compound?
The value was “attenuated”.

What about the “level of proinflammatory molecules in lungs and serum” value [1] of the same compound?
The value was “decreased”.

And the locomotor activities [1]?
Its locomotor activities is “improved locomotor activities”.

What about the “serum level of C-reactive protein (CRP)” value [1] of the same compound?
The value was “normalized”.

And the “SARS-CoV-2 spike S1-induced expression of proinflammatory cytokines” value [2]?
Its value is “markedly suppresses”.

And the “SARS-CoV-2 spike S1 binding to immobilized ACE2” value [3]?
The value was “Inhibition”.

Which “expression of IL-6 and IL-1β induced by HIV-1 Tat” value [4] does the source give for TGGVGD (mAIDS peptide) here?
The value was “had no effect”.

What about the “expression of IL-6 and IL-1β induced by flagellin” value [5] of the same compound?
Its value is “had no effect”.

And the “body temperature (fever)” value [6]?
Its value is “no such inhibitory effect”.

What about the “level of IL-6 mRNA and protein as well as IL-1β mRNA in lungs” value [6] of the same compound?
Its value is “no such inhibitory effect”.

What about the “level of serum IL-6” value [6] of the same compound?
Its value is “no such inhibitory effect”.

And the lung neutrophil infiltration [6]?
The lung neutrophil infiltration was “no such inhibitory effect”.

What about the “expression of IL-6 and IL-1β induced by poly IC” value [7] of the same compound?
The value was “had no effect”.

What about the “SARS-CoV-2 spike S1-mediated induction of IL-6 and IL-1β (mRNA)” value [8] of the same compound?
The value was “had no effect”.

And the “SARS-CoV-2 spike S1 binding to immobilized ACE2” value [3]?
The value was “no such inhibition”.

For `CC(C)[C@H](NC(=O)CNC(=O)[C@H](CC(N)=O)NC(=O)[C@@H](N)[C@@H](C)O)C(=O)NCC(=O)N[C@@H](Cc1ccc(O)cc1)C(=O)O` [wtAIDS, TNGVGY] (H-TNGVGY-OH), which “drug-related side effect (hair loss, appetite loss, weight loss, untoward infection and irritation)” value (control mice) is on record?
The value was “did not notice any drug-related side effect”.
